Where a name gives a salt, the structure may show the parent alone. Read-outs that look alike come from different tables or passages of the source.
What was measured:
[1] = cited from earlier work
[2] = system: isolated rat liver mitochondria; experiment: Mitochondrial ROS production (CM-H2DCFDA)
[3] = cited from earlier work; remark: listed apart in the source
[4] = system: isolated rat liver mitochondria
[5] = system: RCC V; experiment: RCC V activity in submitochondrial particles; format: biochemical, rat; conditions: relative to DMSO treated samples; on RCC V at 5XCmax: key: 0 indicates that the drug had no effects (negative)
Method: (§1) KIs were incubated with submitochondrial particles (1 mg/ml) for 15 min and then RCC I–V activities measured. […] The activities of DMSO-treated samples (controls) were set as 1. […] The difference between the activity from rotenone-containing buffer and rotenone-absent buffer was considered as RCC I activity. […] For measuring RCC I/V and II activity, the changes in absorbance at 340 and 600 nm, respectively, were determined every 1 min for 6 min. For measuring RCC III and RCC IV, the changes in absorbance at 550 nm were measured every 10 s for 2 min.

[6] = system: RCC I; experiment: RCC I activity in submitochondrial particles; format: biochemical, rat; design: key to RCC I at 10XCmax / RCC I at 100XCmax / RCC I at 50XCmax / RCC I at 30XCmax / RCC I at 20XCmax: activity relative to DMSO-treated controls (control set as 1 = 100%); conditions: 10XCmax; relative to DMSO treated samples
Method: as §1

[7] = system: RCC III; experiment: RCC III activity in submitochondrial particles; format: biochemical, rat; design: key to RCC III at 100XCmax: activity relative to DMSO-treated controls (control set as 1 = 100%); conditions: 100XCmax; relative to DMSO treated samples
Method: as §1

[8] = system: isolated rat liver mitochondria; experiment: Mitochondrial swelling (absorbance at 535 nm); format: biochemical; conditions: difference in signal between KI and DMSO treated samples at the end of experiments; on Swelling 5XCmax: key: 0 indicates that the drug had no effects (negative)
[9] = system: isolated rat liver mitochondria; experiment: Mitochondrial oxygen consumption (glutamate/malate or succinate driven, state 4 and state 3); format: biochemical; conditions: DMSO treated samples set as 1; on State 3 respiration driven by succinate at 10XCmax: key: 0 indicates that the drug had no effects (negative); on State 3 respiration driven by succinate at 1XCmax: key: 0 indicates that the drug had no effects (negative)
Method: Rats were anesthetized by an intraperitoneal injection of Nembutal and the liver perfused with PBS to remove the blood. The liver was then cut into small pieces and homogenized using a Dounce type homogenizer in the ice-cold isolation buffer (IB) containing 200 mM sucrose, 10 mM Tris-MOPS, 1 mM EGTA (pH 7.4). The sample was then centrifuged at 600g for 10 min. The supernatant was further centrifuged at 7500g for 10 min, and the pellets was washed once with the IB and centrifuged again at 7500g for 10 min to collect mitochondria. […] Before drug treatment, the protein concentration was adjusted to 1 mg/ml using appropriate buffer. […] Briefly, mitochondrial and cytosolic fractions from four different preparations using four rats were diluted using the Laemmli protein loading buffer and subject to SDS-PAGE with 4–20% gradient gels. The proteins were blotted to PVDF membranes and detected using antibodies against GAPDH, ATP5A, UQCRC2, SDHB, and NDUFB8.
The aliquoted stock solutions were kept for less than one month and each tube was used only once. The KIs were added to the mitochondria at 1:1000 dilutions. […] The Cmax data were from clinical trials which used FDA recommend dosages, route of administration, and duration. […] The final concentration of DMSO for drug treatment was always 0.1%, and control treatments were 0.1% DMSO.
Briefly, mitochondria were incubated with the KIs for 5 min, and then split evenly and loaded to the sample tubes of two Oxytherm systems (Hansatech Instruments Ltd), with one system used for measuring glutamate/malate driven respiration and the other succinate-driven respiration, both of which were defined as state 4 respiration. After 3 min, ADP was added to measure the maximal oxygen consumption rate, which was defined as state 3 respiration. […] The oxygen consumption rate of DMSO-treated samples (controls) was set as 1.

[10] = system: RCC IV; experiment: RCC IV activity in submitochondrial particles; format: biochemical, rat; design: key to RCC IV at 50XCmax / RCC IV at 100XCmax: activity relative to DMSO-treated controls (control set as 1 = 100%); conditions: 50XCmax; relative to DMSO treated samples; in %
Method: as §1

[11] = target: T1, RCC II (Rattus norvegicus, UniProt P21913+Q641Z9+Q6PCT8+Q920L2); experiment: RCC II activity in submitochondrial particles; format: biochemical; design: key: activity relative to DMSO-treated controls (control set as 1 = 100%); conditions: relative to DMSO treated samples
T1 construct: Submitochondrial particles were prepared by subjecting the intact mitochondria to three successive freeze–thaw cycles; from tissue; host or cells: rat liver mitochondria, used as submitochondrial particles
T1 sequence (Q920L2 35-656): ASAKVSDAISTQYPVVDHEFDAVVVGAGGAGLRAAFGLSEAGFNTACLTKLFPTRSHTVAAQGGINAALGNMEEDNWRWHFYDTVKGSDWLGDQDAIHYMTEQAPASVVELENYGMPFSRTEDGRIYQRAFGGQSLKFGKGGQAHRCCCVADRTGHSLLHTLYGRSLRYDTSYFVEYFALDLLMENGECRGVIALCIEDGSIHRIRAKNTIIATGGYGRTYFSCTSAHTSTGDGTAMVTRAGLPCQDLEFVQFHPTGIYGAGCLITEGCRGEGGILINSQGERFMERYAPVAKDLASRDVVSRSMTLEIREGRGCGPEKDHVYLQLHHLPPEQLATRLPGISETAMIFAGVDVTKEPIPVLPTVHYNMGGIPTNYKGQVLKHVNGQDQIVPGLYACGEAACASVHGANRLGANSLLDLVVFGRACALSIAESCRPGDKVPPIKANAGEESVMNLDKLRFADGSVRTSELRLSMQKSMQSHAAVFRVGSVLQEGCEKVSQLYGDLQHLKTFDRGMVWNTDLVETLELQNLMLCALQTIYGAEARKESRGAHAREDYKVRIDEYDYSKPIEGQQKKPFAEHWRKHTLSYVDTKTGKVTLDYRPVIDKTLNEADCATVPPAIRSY
T1 sequence (P21913 31-282): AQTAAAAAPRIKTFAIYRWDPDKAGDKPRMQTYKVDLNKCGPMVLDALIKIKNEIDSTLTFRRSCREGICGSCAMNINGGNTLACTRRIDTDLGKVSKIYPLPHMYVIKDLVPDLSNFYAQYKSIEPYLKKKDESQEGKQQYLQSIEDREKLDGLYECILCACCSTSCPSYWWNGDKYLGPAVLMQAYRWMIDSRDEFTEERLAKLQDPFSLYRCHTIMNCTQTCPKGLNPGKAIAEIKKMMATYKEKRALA
T1 sequence (Q641Z9 1-169): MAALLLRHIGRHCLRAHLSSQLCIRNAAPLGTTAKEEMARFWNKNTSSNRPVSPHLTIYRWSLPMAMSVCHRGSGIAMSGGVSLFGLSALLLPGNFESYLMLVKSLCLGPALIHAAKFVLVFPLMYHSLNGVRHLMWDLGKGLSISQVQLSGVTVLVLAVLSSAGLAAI
T1 sequence (Q6PCT8 57-159): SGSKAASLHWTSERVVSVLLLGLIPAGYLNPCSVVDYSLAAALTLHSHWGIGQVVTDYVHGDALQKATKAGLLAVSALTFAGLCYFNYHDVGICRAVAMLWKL
Method: as §1

[12] = system: isolated rat liver mitochondria; experiment: Mitochondrial inner membrane potential (MMP), Rhodamine 123; format: biochemical; conditions: difference in signal between KI and DMSO treated samples at the end of experiments
Description: Fig. 3 KI effects on mitochondrial inner membrane potential (MMP). […] In a, c, data are means and standard derivations from three separate experiments. *p < 0.05 as compared to DMSO-treated samples at the end of experiments. In b, data are means of two independent experiments

[13] = design: method as in product labeling; conditions: ref product labeling, cited from earlier work
[14] = human therapeutic Cmax at FDA recommended dosages, ref product labeling and drug approval packages at the official FDA website
[15] = positive control alamethicin treated samples
[16] = read-out: Cmax at µM, therapeutic maximal blood concentration, ref product labeling
[17] = therapeutic maximal blood concentration, ref product labeling

Cc1ccc(NC(=O)c2ccc(CN3CCN(C)CC3)cc2)cc1Nc1nccc(-c2cccnc2)n1 [Imatinib]
DILI potential (based on labeling) ([1]; in vivo): 1
labeling for DILI ([1]; in vivo): W&P: fatal DILI

[Ca+2].[Cl-].[Cl-] [calcium chloride]
increase in ROS production ([2]; positive control, 100 µM CaCl2, DMSO-treated = 1): threefold

CC(=O)c1c(C)c2cnc(Nc3ccc(N4CCNCC4)cn3)nc2n(C2CCCC2)c1=O [Palbociclib]
Cmax [3, 14]: 0.24 µM
DILI potential (based on labeling) ([1]; ref FDA product labeling): 0

CNS(=O)(=O)C[C@H]1CC[C@H](N(C)c2ncnc3[nH]ccc23)CC1 [oclacitinib]
cytochrome c release from intact mitochondria [4]: significant cytochrome c release

C[C@@H]1CCN(C(=O)CC#N)C[C@@H]1N(C)c1ncnc2[nH]ccc12 [tofacitinib citrate]
Cytochrome c release 1XCmax [4, 15]: 0
Cytochrome c release 2.5XCmax [4, 15]: 0
Cytochrome c release 5XCmax [4, 15]: 0
Cytochrome c release 10XCmax [4, 15]: 0
Cytochrome c release 20XCmax ([4]; 20XCmax, positive control alamethicin treated samples): 0
Cytochrome c release 30XCmax ([4]; 30XCmax, positive control alamethicin treated samples): 0
Cytochrome c release 50XCmax ([4]; 50XCmax, positive control alamethicin treated samples): 0
Cytochrome c release 100XCmax ([4]; 100XCmax, positive control alamethicin treated samples): 7.22±1.11 percentage of the positive control group
Cmax [3, 16]: 0.089 µM
Cmax [3, 17]: 0.0451 µg/mL
RCC V at 5XCmax [5]: 0
RCC V at 50XCmax ([5]; 50XCmax): 0
RCC I at 10XCmax [6]: 0
RCC III at 100XCmax [7]: 0
Swelling 1XCmax [8]: 0
Swelling 2.5XCmax [8]: 0
Swelling 5XCmax [8]: 0
Swelling 10XCmax [8]: 0
Swelling 20XCmax ([8]; 20XCmax): 0
Swelling 30XCmax ([8]; 30XCmax): 0
Swelling 50XCmax ([8]; 50XCmax): 0
Swelling 100XCmax ([8]; 100XCmax): 0
State 3 respiration driven by succinate at 1XCmax [9]: 0
State 4 respiration driven by succinate at 1XCmax [9]: 0
State 3 respiration driven by succinate at 2.5XCmax [9]: 0
State 4 respiration driven by succinate at 2.5XCmax [9]: 0
State 3 respiration driven by succinate at 5XCmax [9]: 0
State 4 respiration driven by succinate at 5XCmax [9]: 0
State 3 respiration driven by succinate at 10XCmax [9]: 0
State 4 respiration driven by succinate at 10XCmax [9]: 0
State 3 respiration driven by succinate at 20XCmax ([9]; 20XCmax): 0
State 4 respiration driven by succinate at 20XCmax ([9]; 20XCmax): 0
State 3 respiration driven by succinate at 30XCmax ([9]; 30XCmax): 0
State 4 respiration driven by succinate at 30XCmax ([9]; 30XCmax): 0
State 3 respiration driven by succinate at 50XCmax ([9]; 50XCmax): 0
State 4 respiration driven by succinate at 50XCmax ([9]; 50XCmax): 0
State 3 respiration driven by succinate at 100XCmax ([9]; 100XCmax): 0
State 4 respiration driven by succinate at 100XCmax ([9]; 100XCmax): 0
RCC IV at 50XCmax [10]: 0
RCC II at 1.0XCmax [11]: 0
RCC II at 2.5XCmax [11]: 0
RCC II at 5XCmax [11]: 0
RCC II at 10XCmax [11]: 0
RCC II at 20XCmax ([11]; 20XCmax): 0
RCC II at 30XCmax ([11]; 30XCmax): 0
RCC II at 50XCmax ([11]; 50XCmax): 0
RCC II at 100XCmax ([11]; 100XCmax): 0
ROS measured by CM-H2DCFDA at 1XCmax ([2]; DMSO treated samples set as 1): 0
ROS measured by CM-H2DCFDA at 2.5XCmax ([2]; DMSO treated samples set as 1): 0
ROS measured by CM-H2DCFDA at 5XCmax ([2]; DMSO treated samples set as 1): 0
ROS measured by CM-H2DCFDA at 10XCmax ([2]; DMSO treated samples set as 1): 0
ROS measured by CM-H2DCFDA at 20XCmax ([2]; 20XCmax, DMSO treated samples set as 1): 0
ROS measured by CM-H2DCFDA at 30XCmax ([2]; 30XCmax, DMSO treated samples set as 1): 0
ROS measured by CM-H2DCFDA at 50XCmax ([2]; 50XCmax, DMSO treated samples set as 1): 0
ROS measured by CM-H2DCFDA at 100XCmax ([2]; 100XCmax, DMSO treated samples set as 1): 0
MMP measured by Rhodamine 123 at 1XCmax [12]: 0
MMP measured by Rhodamine 123 at 2.5XCmax [12]: 0
MMP measured by Rhodamine 123 at 5XCmax [12]: 0
MMP measured by Rhodamine 123 at 10XCmax [12]: 0
MMP measured by Rhodamine 123 at 20XCmax ([12]; 20XCmax): 0
MMP measured by Rhodamine 123 at 30XCmax ([12]; 30XCmax): 0
MMP measured by Rhodamine 123 at 50XCmax ([12]; 50XCmax): 0
MMP measured by Rhodamine 123 at 100XCmax ([12]; 100XCmax): 0

CN(C)C/C=C/C(=O)Nc1cc2c(Nc3ccc(F)c(Cl)c3)ncnc2cc1O[C@H]1CCOC1 [Afatinib]
Cmax [3, 14]: 0.04 µM
labeling for DILI ([1]; W&P warnings and precautions, BBW black box warnings, ref FDA product labeling): W&P: ALT↑/monitoring
DILI potential (based on labeling) ([1]; ref FDA product labeling): 1

Cc1cn(-c2cc(NC(=O)c3ccc(C)c(Nc4nccc(-c5cccnc5)n4)c3)cc(C(F)(F)F)c2)cn1 [Nilotinib]
Cytochrome c release 1XCmax [4, 15]: 0
Cytochrome c release 2.5XCmax [4, 15]: 0
Cytochrome c release 5XCmax [4, 15]: 0
Cytochrome c release 10XCmax [4, 15]: 0
Cmax [3, 14]: 4.27 µM
Cmax [3, 16]: 4.27 µM
Cmax [3, 17]: 2.26 µg/mL
RCC V at 5XCmax [5]: 0
RCC I at 10XCmax [6]: 0
Swelling 1XCmax [8]: 0
Swelling 2.5XCmax [8]: 0
Swelling 5XCmax [8]: 0
Swelling 10XCmax [8]: 0
Labeling for cardiotoxicity ([13]; BBW: black box warning, W&P: Warnings and Precautions): BBW: QT Interval Prolongation
Potential for cardiotoxicity (based on labeling) [13]: 1
State 3 respiration driven by succinate at 1XCmax [9]: 0
State 4 respiration driven by succinate at 1XCmax [9]: 0
State 3 respiration driven by succinate at 2.5XCmax [9]: 0
State 4 respiration driven by succinate at 2.5XCmax [9]: 0
State 3 respiration driven by succinate at 5XCmax [9]: 0
State 4 respiration driven by succinate at 5XCmax [9]: 0
State 3 respiration driven by succinate at 10XCmax [9]: 0
State 4 respiration driven by succinate at 10XCmax [9]: 0
RCC II at 1.0XCmax [11]: 0
RCC II at 2.5XCmax [11]: 0
RCC II at 5XCmax [11]: 0
RCC II at 10XCmax [11]: 0
ROS measured by CM-H2DCFDA at 1XCmax ([2]; DMSO treated samples set as 1): 0
ROS measured by CM-H2DCFDA at 2.5XCmax ([2]; DMSO treated samples set as 1): 0
ROS measured by CM-H2DCFDA at 5XCmax ([2]; DMSO treated samples set as 1): 0
ROS measured by CM-H2DCFDA at 10XCmax ([2]; DMSO treated samples set as 1): 0
MMP measured by Rhodamine 123 at 1XCmax [12]: 0
MMP measured by Rhodamine 123 at 2.5XCmax [12]: 0
MMP measured by Rhodamine 123 at 5XCmax [12]: 0
MMP measured by Rhodamine 123 at 10XCmax [12]: 0

Cc1ccc(NC(=O)c2ccc(CN3CCN(C)CC3)cc2)cc1Nc1nccc(-c2cccnc2)n1 [imatinib mesylate]
Cmax [3, 16]: 2 µM
Cmax [3, 17]: 0.986 µg/mL
Labeling for DILI ([1]; in vivo): W&P: fatal DILI

Cc1nc(Nc2ncc(C(=O)Nc3c(C)cccc3Cl)s2)cc(N2CCN(CCO)CC2)n1 [Dasatinib]
Cmax [3, 14]: 0.18 µM
DILI potential (based on labeling) ([1]; ref FDA product labeling): 0

C[C@@H]1CCN(C(=O)CC#N)C[C@@H]1N(C)c1ncnc2[nH]ccc12 [Tofacitinib]
lowest concentration causing cytochrome c release ([4]; rat, 30 min, pH 7.4): 100 fold Cmax
Cmax [3, 14]: 0.09 µM
